Test results from US20250369975A1, “METHOD FOR DETECTING TRANSTHYRETIN TETRAMER, AND METHOD FOR EVALUATING STABILITY” (SYSMEX CORPORATION, priority 2024, published 2025).
Read-outs that look alike come from different tables or passages of the source.

What was measured:
[1] = Comparative Example 2: 48-hour urea treatment, then sandwich ELISA (TTR 4mer %); format: physicochemical, human; conditions: urea 7.2 M, 25° C., Dunnett's test, FIG. 24A
Method: The recombinant TTR of the wild-type (WT), the stabilized variant (Ti19M), and the destabilized variant (V30M) as in Example 1 were used as the recombinant TTR. These recombinant TTRs were diluted with 1% BSA/PBS, to prepare a sample containing 16 µg/mL of each recombinant TTR. Sera obtained from patients with atrial fibrillation (n=26), wild-type ATTR patients (n=18), and ATTR patients with destabilized mutation (A36D) (n=2) were diluted 10 times with 1% BSA/PBS, to prepare various serum samples. A calibrator was prepared in the same manner as in Comparative Example 1.
As the detection antibody and the labeling substance, a biotin-labeled antibody solution and an ALP solution were prepared in the same manner as in Comparative Example 1. An anti-TTR antibody solution was prepared as the capture antibody in the same manner as in Comparative Example 1. […]
Each sample was measured by sandwich ELISA in the same manner as in (3.2) of Comparative Example 1. The calibrator was measured in the same manner. A calibration curve was prepared from the measured values of the calibrators, and the TTR level of each sample was acquired with use of the calibration curve. TTR 4 mer % of the sample after the urea treatment was calculated from the following calculation formula, using the TTR levels of the sample after the urea treatment and the sample without the urea treatment. […]

[2] = system: TTR tetramer (recombinant human transthyretin WT, T119M, V30M); format: binding; conditions: probe solution 10 μM; recombinant TTR 100 ng/mL; FIG. 14A-D
[3] = target: T1, TTR tetramer (recombinant human transthyretin WT, T119M, V30M) (Homo sapiens, UniProt P02766, V50M); format: binding; conditions: probe solution 0.2 μM; FIG. 18A
T1 construct: purchased AlexoTech T-500-10 (WT); T-515-10 (T119M); T-505-10 (V30M)

[4] = target: T2, TTR tetramer (recombinant human transthyretin WT, T119M, V30M) (Homo sapiens, UniProt P02766, T139M); format: binding; conditions: probe solution 0.2 μM; FIG. 18A
T2 construct: purchased AlexoTech T-500-10 (WT); T-515-10 (T119M); T-505-10 (V30M)

[5] = system: TTR tetramer (recombinant human transthyretin WT, T119M, V30M); format: binding; conditions: probe solution 0.2 μM mixed with sample; FIG. 18A-B
[6] = target: T1, TTR tetramer (recombinant human transthyretin WT, T119M, V30M); format: binding; conditions: probe solution 0.3 μM immobilized; FIG. 16A
[7] = target: T2, TTR tetramer (recombinant human transthyretin WT, T119M, V30M); format: binding; conditions: probe solution 0.3 μM immobilized; FIG. 16A
[8] = system: TTR tetramer (recombinant human transthyretin WT, T119M, V30M); format: binding; conditions: probe solution 0.3 μM immobilized on solid phase; recombinant TTR 100 ng/mL; FIG. 16A-B
[9] = target: T1, TTR tetramer (recombinant human transthyretin WT, T119M, V30M); format: binding; conditions: probe solution 10 μM; recombinant TTR 100 ng/mL; FIG. 14A
[10] = target: T2, TTR tetramer (recombinant human transthyretin WT, T119M, V30M); format: binding; conditions: probe solution 10 μM; recombinant TTR 100 ng/mL; FIG. 14A

Molecule: transthyretin (T119M) human, recombinant [Probe T119M]
- TTR 4mer % relative to the sample containing wild-type TTR [1]: significantly higher

Molecule: transthyretin (V30M) human [Probe V30M]
- TTR 4mer % relative to the sample containing wild-type TTR [1]: significantly lower

Molecule: O=C(CCCCC1SCC2NC(=O)NC21)NCCOCCOCCOCCOCCOCCOCCOCCOCCC(=O)Nc1ccc(/C=C/c2cc(Br)c(O)c(Br)c2)cc1 (stereo not shown) [Probe C5, Biotin-PEG8-Stilbene Derivative]
- chemiluminescence signal measured values of WT, T119M and V30M samples versus blank [2]: results similar to those of FIG. 14 A
- signal measured value of V30M sample relative to WT sample [3]: lower than the signal measured value of WT
- signal measured value of T119M sample relative to WT sample [4]: higher than the signal measured value of WT
- chemiluminescence signal measured values of WT, T119M and V30M samples versus blank [5]: higher than the signal measured value of the blank
- signal measured value of V30M sample relative to WT sample [6]: lower than the signal measured value of WT
- signal measured value of T119M sample relative to WT sample [7]: higher than the signal measured value of WT
- chemiluminescence signal measured values of WT, T119M and V30M samples versus blank [8]: higher than the signal measured value of the blank

Molecule: Biotin-PEG8-Thyroxine [Probe C1]
- signal measured value of V30M sample relative to WT sample [9]: lower than the signal measured value of WT
- signal measured value of T119M sample relative to WT sample [10]: higher than the signal measured value of WT
- chemiluminescence signal measured values of WT, T119M and V30M samples versus blank [2]: higher than the signal measured value of the blank

Molecule: biotin-PEG12-thyroxine [Probe C2]
- chemiluminescence signal measured values of WT, T119M and V30M samples versus blank [2]: results similar to those of FIG. 14 A
